Laboratory results as given in patent publication US11117904B2, “Compositions and methods for the delivery of therapeutics” (ViiV Healthcare Company, priority 2016, dated 2021).

Tests used:
[1] = Nanoparticle characterization by dynamic light scattering; format: physicochemical; conditions: upon derivatization of native drug into prodrug
Description: Nanoformulations were characterized for particle size, polydispersity index (PDI) and zeta potential by dynamic light scattering (FIG. 1). This was done using a Malvern Zetasizer, Nano Series Nano-ZS (Malvern Instruments Inc., Westborough, Mass.). Nanoparticle morphology was determined by scanning electron microscopy (SEM). Ultra performance liquid chromatography tandem mass-spectrometry (UPLC MS/MS) was used for drug quantitation. […] Further, the improved hydrophobicity of MDTG facilitated production of stable formulations with high drug loading capacity. Nanoformulations were characterized for particle size, polydispersity index (PDI) and zeta potential by dynamic light scattering (DLS) (Table 1). This was done using a Malvern Zetasizer, Nano Series Nano-ZS (Malvern Instruments Inc, Westborough, Mass.). Nanoparticle morphology was determined by scanning electron microscopy (SEM). UPLC MS/MS was used for drug quantitation. […] The improved hydrophobicity of MCAB facilitated production of stable formulations with high drug loading capacity.

[2] = tested on: human monocyte derived macrophages (MDM); assay: Uptake and retention of drug in human monocyte derived macrophages (HPLC); format: cell-based
Description: Human monocytes were cultured in macrophage colony stimulating factor containing cell culture medium for 7-10 days in order to differentiate into macrophages (Balkundi et al. (2011) Intl. J. Nanomed., 6:3393-3404; Nowacek et al. (2009) Nanomed., 4(8):903-917). The macrophages were incubated with a range of formulations and native drugs. At each time point, adherent MDM were washed three times with 1 mL of PBS, scraped into 1 mL of fresh PBS and pelleted by centrifugation at 950×g for 8 minutes. The cell pellet was reconstituted in 200 μl of high performance liquid chromatography (HPLC)-grade methanol and probe sonicated followed by centrifugation at 20,000×g for 20 minutes. The supernatant was analyzed for drug content using HPLC (FIG. 2A and FIG. 2B). […] Human monocytes were cultured in macrophage colony stimulating factor containing cell culture medium for 7-10 days in order to differentiate into macrophages (Balkundi et al. (2011) Intl. J. Nanomed., 6:3393-3404; Nowacek et al. (2009) Nanomed., 4(8):903-917). The macrophages were incubated with a range of formulations and native drugs. At each time point, adherent monocyte-derived macrophage (MDM) were washed three times with 1 mL of PBS, scraped into 1 mL of fresh PBS and pelleted by centrifugation at 950×g for 8 minutes. […] The supernatant was analyzed for drug content using HPLC (FIGS. 4A and 4B). […]

[3] = tested on: HIV-1ADA; assay: Antiretroviral activity in MDM challenged with HIV-1ADA (RT activity, HIV-1 p24 staining); format: cell-based; conditions: MDM treated with 100 μM for 8 hours, challenged with HIV-1ADA at MOI 0.01; RT activity and p24
Description: MDM were treated with either 100 μM DTG, MDTG, P407-MDTG or FA-P407-MDTG for 8 hours. The cells were washed with PBS to remove excess of free drug and nanoparticles. The MDM were challenged with HIV-1ADA at a MOI of 0.01 infectious viral particles/cell for 18 hours on day 1, 5, 10 and 15. Progeny virion production was measured by reverse transcriptase (RT) activity in culture medium (Kalter et al. (1992) J. Clin. Microbiol., 30(4):993-995) (FIG. 2C). HIV-1 p24 protein antigen expression was assessed (Guo et al. (2014) J. Virol., 88(17):9504-9513). The MDM were washed with PBS and fixed with 4% paraformaldehyde for 15 minutes at room temperature. The cells were blocked using 10% BSA containing 1% Triton X-100 in PBS for 30 minutes at room temperature. Following blocking, cells were incubated with HIV-1 p24 mouse monoclonal antibodies (1:50; Dako, Carpinteria, Calif., USA) for overnight at 4° C., followed by 1 hour incubation at room temperature. […]
MDM were treated with either 100 μM CAB long acting parenteral (CAB-LAP), P407-CAB, P407-MCAB or FA-P407-MCAB for 8 hours. […] Progeny virion production was measured by reverse transcription (RT) activity in culture medium (Kalter et al. (1992) J. Clin. Microbiol., 30(4):993-995). HIV-1 p24 protein antigen expression was assessed (Guo et al. (2014) J. Virol., 88(17):9504-9513) (FIG. 4C). […]

hydrophobicity [1]	intracellular accumulation of the drug ([2]; MDM, compared to CAB-LAP)	MDM retention ([2]; cellular retention in MDM)	Structure (SMILES)	antiretroviral efficacy [3]
greatly improved	significantly improved		CCCCCCCCCCCCCC(=O)Oc1c2n(cc(C(=O)NCc3ccc(F)cc3F)c1=O)CC1OCC(C)N1C2=O (centres unmarked) [MCAB]	
greatly improved		significant enhancements	CCCCCCCCCCCCCC(=O)Oc1c2n(cc(C(=O)NCc3ccc(F)cc3F)c1=O)C[C@@H]1OCC[C@@H](C)N1C2=O [MDTG]	significant enhancements
